This series has as its system S. venezuelae supernatant (secreted enzymes). The experiment in a line: In vitro degradation of CLPs by S. venezuelae cell-free supernatant. In kind it is in vitro ADME, Streptomyces venezuelae ATCC 10712. The settings on record: pure CLPs (100 µM) incubated 24 h at 30°C with 4% (vol/vol) Sv CFS (grown on ISP2, 0.22-µm filtered), shaking 180 rpm; UPLC-MS/MS with feature-based molecular networking. As for the experimental part:
S. venezuelae cultures were performed on ISP2 medium at 28°C (yeast extract 4 g/L, malt extract 10 g/L, glucose 4 g/L, agar 20 g/L; pH 7.3). On 12 × 12 cm Petri square plates, three stripes (1 × 12 cm) of spores were inoculated with a cotton swab [40 µL of spores suspension (10^7 spores/mL) each], spaced by 3 cm each. The plates were left for 7 days of incubation. Next, the agar media was recovered and placed in Falcon tubes at −20°C for 24 h. Then, the agar media were defrosted at room temperature and centrifuged (8,000 rpm for 20 min). Finally, the supernatant leaked from the agar was collected, filtered sterilized (0.22-µm pore size filters) and stored at −20°C until further use. The heat-treated Sv supernatant was generated by incubating an aliquot of the cell-free supernatant of Sv for 10 min at 98°C. The supernatant was then filtered (0.22-µm pore size filters) and stored at −20°C until further use.
[…] Then the solutions were incubated for 24 h at 30°C with continuous shaking (180 rpm). Next, the solution were centrifuged (1 min at 10,000 rpm), filtered (0.22-µm pore size filters), and analyzed by UPLC-MS.
The degradation assays of Pseudomonas CLPs were performed using CFS generated as described above. They were supplemented by 4% (vol/vol) of S. venezuelae CFS prepared as described previously. Next, the solutions were incubated for 24 h at 30°C with continuous shaking (180 rpm). Then, the solution were centrifuged (1 min at 10,000 rpm), filtered (0.22-µm pore size filters), and analyzed by UPLC-MS.
For the CLP degradation kinetic experiments, surfactin, iturin, and fengycin solutions supplemented with S. venezuelae supernatant were prepared following the same protocol. Twenty microliters of solution was sampled at each time point and directly mixed with 80 µL of acetonitrile to stop enzymatic degradation. Finally, they were stored at −20°C until analysis by UPLC-MS.
All UPLC-MS analyses were performed using an Agilent 1290 Infinity II coupled with a diode array detector and a mass detector (Jet Stream ESI-Q-TOF 6530) in positive mode with the parameters set up as follows: capillary voltage of 3.5 kV, nebulizer pressure of 35 lb/in^2, drying gas of 8 L/min, drying gas temperature of 300°C, flow rate of sheath gas of 11 L/min, sheath gas temperature of 350°C, fragmentor voltage of 175 V, skimmer voltage of 65 V, and octopole radiofrequency of 750 V. Accurate mass spectra were recorded in the m/z range of 300–1,700. For untargeted MS/MS, we used the same MS1 parameters as described. We added MS2 untargeted acquisition mode with the parameters as follows: MS/MS range 50–1,700 m/z; MS/MS scan rate 3 spectra/s; isolation width MS/MS medium (approx. 4 AMU), Decision Engine Native; fixed collision energies of 25 and 40 V for surfactin, 50 V for iturin, and 60 V for fengycin experiments; precursor selection: three for the surfactin experiment, four for the iturin and fengycin experiments, threshold 1,500 (Abs), isotope model common, active exclusion after two spectra and release after 0.5 min, sorting the precursors by charge state then abundance (charge state preference 1). For targeted MS/MS, we used the same MS1 parameters MS/MS range of 50–1,700 m/z or 50–3,200 (when required for Pseudomonas CLPs with mass >1,700 Da), MS/MS scan rate 3 spectra/s, isolation width MS/MS narrow (approx. 1.3 amu), and fixed collision energies 20, 40, and 60V. In all experiments, a C18 Acquity UPLC ethylene bridged hybrid column (2.1 mm × 50 mm × 1.7 µm; Waters Corporation, Milford, MA, USA) was used at a flow rate of 0.6 mL/min and a temperature of 40°C. The injection volume was 20 µL, and the diode array detector scanned a wavelength spectrum between 190 and 600 nm. Unless otherwise mentioned, a gradient of acidified water (0.1% formic acid) (solvent A) and of acidified acetonitrile (0.1% formic acid) (solvent B) was used as mobile phase with a constant flow rate of 0.6 mL/min, starting at 10% B and rising to 100% B in 20 min. […]

As to iturin, the “degradation of pure Bacillus CLPs by Sv CFS” value is recorded as “degrades”.
